How the values were obtained:
Assay in all cases: MMS-induced nuclear PAR accumulation, immunofluorescence imaging
Format in all cases: cell-based
HeLa cells = conditions: Homo sapiens, 50 μg/mL MMS, n=26, read-out: Geometric Mean EC50, PAR accumulation
Experimental: (§1) The HeLa (Cat #CCL-2) and OVCAR-3 (Cat #HTB-161) human cancer cell lines were obtained from ATCC (Manassas, Virginia, USA) and the RMUG-S(Cat #IFO50320) and Kuramochi (Cat #JCRB0098) cell lines were obtained from the National Institutes of Biomedical Innovation, Health and Nutrition's Japanese Collection of Research Bioresources (Ibaraki City, Osaka, Japan).
(§2) All cell lines were grown in an incubator at 37° C. in 5% CO2. HeLa cells were cultured in Dulbecco's Modified Medium (DMEM)+glutaMAX™ (Thermo Fisher Scientific, Waltham, MA, USA Cat #10566-016) containing 1% penicillin/streptomycin (pen/strep) (Thermo Fisher Scientific Cat #15070-063), and 10% fetal bovine serum (FBS) (Thermo Fisher Scientific Cat #A31605-02). Kuramochi cells were cultured in RPMI medium+glutaMAX™ (Thermo Fisher Scientific Cat #72400-047), 10% FBS, and 1% pen/strep. RMUG-S cells were cultured in Ham's F12 medium+glutaMAX™ (Thermo Fisher Scientific Cat #31765-035) containing 10% FBS, and 1% pen/strep. OVCAR-3 cells were cultured in RPMI medium+glutaMAX™ containing 20% FBS, 1% pen/strep, and 0.01 mg/mL bovine insulin (MilliporeSigma, Burlington, MA, USA Cat #10516-5ML).
(§3) Compound 1 EC50 values for accumulation of PAR chains were determined using an immunofluorescence high-content imaging assay of PAR staining. Cells were harvested with trypsin (Thermo Fisher Scientific, Cat #25200-056) and plated in black-walled, clear bottom 96-well Corning Costar 3603 plates (VWR, Radnor, PA, USA Cat #29444-008) at 15,000 cells/well in 100 μL normal growth media. The cells were incubated overnight at 37° C., 5% CO2. The following day, a 1000× Compound 1 concentration curve was prepared by serial dilution of Compound 1 in 100% DMSO for twelve concentrations with the highest starting final concentration of 10 μM. The 1000× test compound curve was diluted 1:200 into growth media to prepare a 5× concentration curve in 0.5% DMSO/media before addition of 25 μL of compound or 0.5% DMSO/media alone to each well of the plate. The plate was mixed gently on a plate shaker and then preincubated at 37° C., 5% CO2 for 1 hour. A 2.25× stock of MMS (Sigma Cat #129925-5G) plus Compound 1 in media was prepared by diluting a 100 mg/mL stock of MMS prepared in 100% DMSO into growth media containing 1× Compound 1 compound. […] Nuclear PAR accumulation was evaluated by imaging the plates on an ImageXpress Pico automated cell imaging system (Molecular Devices, San Jose, CA, USA).
(§4) Four fields for each well were acquired at 20× magnification resulting in at least 1,000 cells analyzed per well. Percent PAR positive cells were calculated using CellReporterXpress software (Molecular Devices, San Jose, CA, USA) using nuclei detection by DAPI image segmentation then setting a fluorescence intensity threshold for PAR. […]

Kuramochi cells = conditions: Homo sapiens, 50 μg/mL MMS, n=3, read-out: Geometric Mean EC50, PAR accumulation
Experimental: as §1, §2, §3, §4

OVCAR-3 cells = conditions: Homo sapiens; OVCAR-3, 50 μg/mL MMS, n=3; read-out: Geometric Mean EC50, PAR accumulation
Experimental: as §1, §2, §3, §4

RMUG-S cells = conditions: Homo sapiens, 50 μg/mL MMS, n=3, read-out: Geometric Mean EC50, PAR accumulation
Experimental: as §1, §2, §3, §4

[2H]C([2H])(c1cnn(C)c1)N1C(=O)c2cc(S(=O)(=O)NC3(C)CC3)ccc2N2C1=NC[C@H]2C [Compound 1, (R)-1-methyl-4-((1-methyl-1H-pyrazol-4-yl)methyl-d2)-N-(1-methylcyclopropyl)-5-oxo-1,2,4,5-tetrahydroimidazo[1,2-a]quinazoline-7-sulfonamide] was tested, and the EC50 (HeLa cells) was 14 nM, the EC50 (Kuramochi cells) was 9 nM and the EC50 (OVCAR-3 cells) was 20 nM. For the same compound, the EC50 (RMUG-S cells) was 38 nM.

From patent US20260272936A1, “TREATMENT OF CANCER WITH A PARG INHIBITOR” (858 Therapeutics, Inc., priority 2023, published 2026)
